Data as given in patent US20230263822A1, “MODULATION OF FACTOR 11 EXPRESSION” (Ionis Pharmaceuticals, Inc., priority 2008, published 2023).
Strand notation (5' to 3'): a small letter for the sugar, then the base; units joined by * are phosphorothioate-linked, units joined directly phosphodiester-linked; [ ] holds rarer units or linkages, { } end groups; capitals alone tell only the bases. e = 2'-O-(2-methoxyethyl) (MOE); [5mC] = 5-methylcytosine; d = 2'-deoxy (DNA)

Tested on: human Factor 11 mRNA
Experiment: Antisense inhibition of human Factor 11 in HepG2 cells by microwalk gapmers, lipofectin, 75 nM (Example 3)
Assay type: cell-based
Details: HepG2, lipofectin, ~24 h, gapmers targeted to nucleobases 656 to 704 of SEQ ID NO: 1
Summary of the method: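 HepG2 cells (10,000/well) were transfected via lipofectin with 75 nM 20-mer MOE gapmers (phosphorothioate, 5-methyl-C) for about 24 h. Factor 11 mRNA was measured by qRT-PCR, normalized to RIBOGREEN total RNA, and given as percent inhibition versus untreated cells.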

Substance	% inhibition [%]
416873 (antisense eA*e[5mC]*eA*dT*dA*dA*dA*dT*dG*dT*d[5mC]*dT*dT*dT*dG*dT*dT*eG*e[5mC]*eA) [compound 416873]	51
416966 (antisense e[5mC]*eT*dT*d[5mC]*dA*dT*dG*dT*d[5mC]*dT*dA*dG*dG*dT*d[5mC]*e[5mC]*eA*e[5mC]*eA*eT) [compound 416966]	64
416956 (antisense eA*eG*dG*dT*d[5mC]*d[5mC]*dA*d[5mC]*dA*dT*dA*dA*dA*dT*dG*eT*e[5mC]*eT*eT*eT) [compound 416956]	61
416951 (antisense e[5mC]*eA*d[5mC]*dA*dT*dA*dA*dA*dT*dG*dT*d[5mC]*dT*dT*dT*eG*eT*eT*eG*e[5mC]) [compound 416951]	48
416874 (antisense e[5mC]*eA*e[5mC]*dA*dT*dA*dA*dA*dT*dG*dT*d[5mC]*dT*dT*dT*dG*dT*eT*eG*e[5mC]) [compound 416874]	49
416872 (antisense e[5mC]*eA*eT*dA*dA*dA*dT*dG*dT*d[5mC]*dT*dT*dT*dG*dT*dT*dG*e[5mC]*eA*eA) [compound 416872]	20
416814 (antisense eA*eG*eG*eT*e[5mC]*d[5mC]*dA*d[5mC]*dA*dT*dA*dA*dA*dT*dG*eT*e[5mC]*eT*eT*eT) [compound 416814]	83
416968 (antisense e[5mC]*e[5mC]*d[5mC]*dT*dT*d[5mC]*dA*dT*dG*dT*d[5mC]*dT*dA*dG*dG*eT*e[5mC]*e[5mC]*eA*e[5mC]) [compound 416968]	73
416808 (antisense eA*eT*eA*eA*eA*dT*dG*dT*d[5mC]*dT*dT*dT*dG*dT*dT*eG*e[5mC]*eA*eA*eG) [compound 416808]	55
416876 (antisense eT*e[5mC]*e[5mC]*dA*d[5mC]*dA*dT*dA*dA*dA*dT*dG*dT*d[5mC]*dT*dT*dT*eG*eT*eT) [compound 416876]	37
416970 (antisense eT*eG*d[5mC]*d[5mC]*d[5mC]*dT*dT*d[5mC]*dA*dT*dG*dT*d[5mC]*dT*dA*eG*eG*eT*e[5mC]*e[5mC]) [compound 416970]	88
416875 (antisense e[5mC]*e[5mC]*eA*d[5mC]*dA*dT*dA*dA*dA*dT*dG*dT*d[5mC]*dT*dT*dT*dG*eT*eT*eG) [compound 416875]	75
416891 (antisense e[5mC]*e[5mC]*e[5mC]*dT*dT*d[5mC]*dA*dT*dG*dT*d[5mC]*dT*dA*dG*dG*dT*d[5mC]*e[5mC]*eA*e[5mC]) [compound 416891]	81
416965 (antisense eT*eT*d[5mC]*dA*dT*dG*dT*d[5mC]*dT*dA*dG*dG*dT*d[5mC]*d[5mC]*eA*e[5mC]*eA*eT*eA) [compound 416965]	53
416881 (antisense e[5mC]*eT*eA*dG*dG*dT*d[5mC]*d[5mC]*dA*d[5mC]*dA*dT*dA*dA*dA*dT*dG*eT*e[5mC]*eT) [compound 416881]	81
416946 (antisense eA*eA*dA*dT*dG*dT*d[5mC]*dT*dT*dT*dG*dT*dT*dG*d[5mC]*eA*eA*eG*e[5mC]*eG) [compound 416946]	86
416952 (antisense e[5mC]*e[5mC]*dA*d[5mC]*dA*dT*dA*dA*dA*dT*dG*dT*d[5mC]*dT*dT*eT*eG*eT*eT*eG) [compound 416952]	51
416828 (antisense eT*eT*eA*eT*eG*d[5mC]*d[5mC]*d[5mC]*dT*dT*d[5mC]*dA*dT*dG*dT*e[5mC]*eT*eA*eG*eG) [compound 416828]	87

Same assay, conditions: HepG2 cells, lipofectin, gapmers targeted to nucleobases 738 to 762 of SEQ ID NO: 1

Substance	% inhibition [%]
416900 (antisense eA*eT*e[5mC]*d[5mC]*dG*dT*dG*d[5mC]*dA*dT*d[5mC]*dT*dT*dT*d[5mC]*dT*dT*eG*eG*e[5mC]) [compound 416900]	90
416980 (antisense eG*eT*d[5mC]*dA*dT*d[5mC]*d[5mC]*dG*dT*dG*d[5mC]*dA*dT*d[5mC]*dT*eT*eT*e[5mC]*eT*eT) [compound 416980]	87
416834 (antisense eG*eT*e[5mC]*eA*eT*d[5mC]*d[5mC]*dG*dT*dG*d[5mC]*dA*dT*d[5mC]*dT*eT*eT*e[5mC]*eT*eT) [compound 416834]	58

Same assay, conditions: HepG2 cells, lipofectin, gapmers targeted to nucleobases 1018 to 1042 of SEQ ID NO: 1

Substance	% inhibition [%]
416983 (antisense eA*eA*d[5mC]*d[5mC]*dG*dG*dG*dA*dT*dG*dA*dT*dG*dA*dG*eT*eG*e[5mC]*eA*eG) [compound 416983]	86
416981 (antisense e[5mC]*e[5mC]*dG*dG*dG*dA*dT*dG*dA*dT*dG*dA*dG*dT*dG*e[5mC]*eA*eG*eA*eT) [compound 416981]	87
416837 (antisense e[5mC]*eA*eA*e[5mC]*e[5mC]*dG*dG*dG*dA*dT*dG*dA*dT*dG*dA*eG*eT*eG*e[5mC]*eA) [compound 416837]	90
416982 (antisense eA*e[5mC]*d[5mC]*dG*dG*dG*dA*dT*dG*dA*dT*dG*dA*dG*dT*eG*e[5mC]*eA*eG*eA) [compound 416982]	84
416835 (antisense eA*e[5mC]*e[5mC]*eG*eG*dG*dA*dT*dG*dA*dT*dG*dA*dG*dT*eG*e[5mC]*eA*eG*eA) [compound 416835]	83

Same assay, conditions: HepG2 cells, lipofectin, gapmers targeted to nucleobases 1062 to 1091 of SEQ ID NO: 1

Substance	% inhibition [%]
416909 (antisense eA*eT*eT*d[5mC]*dT*dT*dT*dG*dG*dG*d[5mC]*d[5mC]*dA*dT*dT*d[5mC]*d[5mC]*eT*eG*eG) [compound 416909]	78
416841 (antisense eG*eA*eG*eA*eT*dT*d[5mC]*dT*dT*dT*dG*dG*dG*d[5mC]*d[5mC]*eA*eT*eT*e[5mC]*e[5mC]) [compound 416841]	87
416847 (antisense eT*eT*eT*e[5mC]*eT*dT*dT*dG*dA*dG*dA*dT*dT*d[5mC]*dT*eT*eT*eG*eG*eG) [compound 416847]	50
416987 (antisense eG*eA*dT*dT*d[5mC]*dT*dT*dT*dG*dG*dG*d[5mC]*d[5mC]*dA*dT*eT*e[5mC]*e[5mC]*eT*eG) [compound 416987]	80
416919 (antisense eT*eT*eT*d[5mC]*dT*dT*dT*dG*dA*dG*dA*dT*dT*d[5mC]*dT*dT*dT*eG*eG*eG) [compound 416919]	27

Same assay, conditions: HepG2 cells, lipofectin, gapmers targeted to nucleobases 1275 to 1318 of SEQ ID NO: 1

Substance	% inhibition [%]
417020 (antisense e[5mC]*eT*dG*dG*d[5mC]*dA*dG*d[5mC]*dG*dG*dA*d[5mC]*dG*dG*d[5mC]*eA*eT*eT*eG*eG) [compound 417020]	84
416932 (antisense e[5mC]*eG*eG*d[5mC]*dA*dT*dT*dG*dG*dT*dG*d[5mC]*dA*d[5mC]*dA*dG*dT*eT*eT*e[5mC]) [compound 416932]	92
416928 (antisense eA*eT*eT*dG*dG*dT*dG*d[5mC]*dA*d[5mC]*dA*dG*dT*dT*dT*d[5mC]*dT*eG*eG*e[5mC]) [compound 416928]	91
416927 (antisense eT*eT*eG*dG*dT*dG*d[5mC]*dA*d[5mC]*dA*dG*dT*dT*dT*d[5mC]*dT*dG*eG*e[5mC]*eA) [compound 416927]	87
416942 (antisense eT*eG*eG*d[5mC]*dA*dG*d[5mC]*dG*dG*dA*d[5mC]*dG*dG*d[5mC]*dA*dT*dT*eG*eG*eT) [compound 416942]	85
416943 (antisense e[5mC]*eT*eG*dG*d[5mC]*dA*dG*d[5mC]*dG*dG*dA*d[5mC]*dG*dG*d[5mC]*dA*dT*eT*eG*eG) [compound 416943]	92
416944 (antisense eA*e[5mC]*eT*dG*dG*d[5mC]*dA*dG*d[5mC]*dG*dG*dA*d[5mC]*dG*dG*d[5mC]*dA*eT*eT*eG) [compound 416944]	83
416920 (antisense eA*e[5mC]*eA*dG*dT*dT*dT*d[5mC]*dT*dG*dG*d[5mC]*dA*dG*dG*d[5mC]*d[5mC]*eT*e[5mC]*eG) [compound 416920]	88
416935 (antisense eG*eG*eA*d[5mC]*dG*dG*d[5mC]*dA*dT*dT*dG*dG*dT*dG*d[5mC]*dA*d[5mC]*eA*eG*eT) [compound 416935]	92
416930 (antisense eG*e[5mC]*eA*dT*dT*dG*dG*dT*dG*d[5mC]*dA*d[5mC]*dA*dG*dT*dT*dT*e[5mC]*eT*eG) [compound 416930]	87
416938 (antisense eA*eG*e[5mC]*dG*dG*dA*d[5mC]*dG*dG*d[5mC]*dA*dT*dT*dG*dG*dT*dG*e[5mC]*eA*e[5mC]) [compound 416938]	90
417012 (antisense eG*eG*dA*d[5mC]*dG*dG*d[5mC]*dA*dT*dT*dG*dG*dT*dG*d[5mC]*eA*e[5mC]*eA*eG*eT) [compound 417012]	72
416921 (antisense e[5mC]*eA*e[5mC]*dA*dG*dT*dT*dT*d[5mC]*dT*dG*dG*d[5mC]*dA*dG*dG*d[5mC]*e[5mC]*eT*e[5mC]) [compound 416921]	88
417006 (antisense e[5mC]*eA*dT*dT*dG*dG*dT*dG*d[5mC]*dA*d[5mC]*dA*dG*dT*dT*eT*e[5mC]*eT*eG*eG) [compound 417006]	81
